In US8530460B2, “Azetidine derivatives” (Boehringer Ingelheim International GmbH, priority 2011, dated 2013):

Each compound was assayed against human ACC2 (Homo sapiens (Human), UniProt O00763) (assay: ACC2 assay (spectrophotometric 384 well assay, NADH-linked coupled lactate dehydrogenase/pyruvate kinase)). Conditions: not given.
Format: biochemical
Description: Spectrophotometric 384 Well Assay
Malonyl CoA formation by acetyl CoA carboxylases is stoichometrically linked to the consumption of ATP. ACC2 activity is measured in a NADH-linked kinetic method measuring ADP generated during the ACC reaction using a coupled lactate dehydrogenase/pyruvate kinase reaction.
For biological testing, a human ACC2 construct which lacks the 128 amino acids at the N-terminus for increased solubility (nt 385-6966 in Genbank entry AJ575592) is cloned. The protein is then expressed in insect cells using a baculoviral expression system. Protein purification is performed by anion exchange.
All compounds are dissolved in dimethyl sulfoxide (DMSO) to a concentration of 10 mM.
Assay reactions are then carried out in 384-well plates, with hACC2 in an appropriate dilution and at final assay concentrations (f.c.) of 100 mM Tris (pH 7.5), 10 mM trisodium citrate, 25 mM KHCO3, 10 mM MgCl2, 0.5 mg/ml BSA, 3.75 mM reduced L-glutathione, 15 U/ml lactate dehydrogenase, 0.5 mM phosphoenolpyruvate, 15 U/ml pyruvate kinase, compounds at different concentrations at final DMSO concentrations of 1%.
The enzymatic reaction is then started by addition of a mixture of NADH, acetyl Coenzyme A (both 200 μM f.c.) and ATP (500 uM f.c.). The decrease of the optical density (slope S) is then determined at 25° C. at a wavelength of 340 nm over 15 minutes in a spectrophotometric reader.
Each assay microtiter plate contains wells with vehicle instead of compound as controls for the non-inhibited enzyme (100% CTL; ‘HIGH’) and wells without acetyl-CoA as controls for non-specific NADH degradation (0% CTL; ‘LOW’).
The slope S is used for calculation of % CTL=(S(compound)−S(‘LOW’))/(S(‘HIGH’)—S(‘LOW’))*100. Compounds will give values between 100% CTL (no inhibition) and 0% CTL (complete inhibition).
For IC50 value determination, the sample slope in the presence of the test compound after subtraction of the low controls (S(compound)−S(‘LOW’)) are used.
An IC50 value is derived from the compound slopes at different dosages after subtraction of the low controls (S(compound)−S(‘LOW’)) by non-linear regression curve fitting (equation y=(A+((B−A)/(1+((C/x)^D))))).

Chain of human ACC2 (O00763 129-2458): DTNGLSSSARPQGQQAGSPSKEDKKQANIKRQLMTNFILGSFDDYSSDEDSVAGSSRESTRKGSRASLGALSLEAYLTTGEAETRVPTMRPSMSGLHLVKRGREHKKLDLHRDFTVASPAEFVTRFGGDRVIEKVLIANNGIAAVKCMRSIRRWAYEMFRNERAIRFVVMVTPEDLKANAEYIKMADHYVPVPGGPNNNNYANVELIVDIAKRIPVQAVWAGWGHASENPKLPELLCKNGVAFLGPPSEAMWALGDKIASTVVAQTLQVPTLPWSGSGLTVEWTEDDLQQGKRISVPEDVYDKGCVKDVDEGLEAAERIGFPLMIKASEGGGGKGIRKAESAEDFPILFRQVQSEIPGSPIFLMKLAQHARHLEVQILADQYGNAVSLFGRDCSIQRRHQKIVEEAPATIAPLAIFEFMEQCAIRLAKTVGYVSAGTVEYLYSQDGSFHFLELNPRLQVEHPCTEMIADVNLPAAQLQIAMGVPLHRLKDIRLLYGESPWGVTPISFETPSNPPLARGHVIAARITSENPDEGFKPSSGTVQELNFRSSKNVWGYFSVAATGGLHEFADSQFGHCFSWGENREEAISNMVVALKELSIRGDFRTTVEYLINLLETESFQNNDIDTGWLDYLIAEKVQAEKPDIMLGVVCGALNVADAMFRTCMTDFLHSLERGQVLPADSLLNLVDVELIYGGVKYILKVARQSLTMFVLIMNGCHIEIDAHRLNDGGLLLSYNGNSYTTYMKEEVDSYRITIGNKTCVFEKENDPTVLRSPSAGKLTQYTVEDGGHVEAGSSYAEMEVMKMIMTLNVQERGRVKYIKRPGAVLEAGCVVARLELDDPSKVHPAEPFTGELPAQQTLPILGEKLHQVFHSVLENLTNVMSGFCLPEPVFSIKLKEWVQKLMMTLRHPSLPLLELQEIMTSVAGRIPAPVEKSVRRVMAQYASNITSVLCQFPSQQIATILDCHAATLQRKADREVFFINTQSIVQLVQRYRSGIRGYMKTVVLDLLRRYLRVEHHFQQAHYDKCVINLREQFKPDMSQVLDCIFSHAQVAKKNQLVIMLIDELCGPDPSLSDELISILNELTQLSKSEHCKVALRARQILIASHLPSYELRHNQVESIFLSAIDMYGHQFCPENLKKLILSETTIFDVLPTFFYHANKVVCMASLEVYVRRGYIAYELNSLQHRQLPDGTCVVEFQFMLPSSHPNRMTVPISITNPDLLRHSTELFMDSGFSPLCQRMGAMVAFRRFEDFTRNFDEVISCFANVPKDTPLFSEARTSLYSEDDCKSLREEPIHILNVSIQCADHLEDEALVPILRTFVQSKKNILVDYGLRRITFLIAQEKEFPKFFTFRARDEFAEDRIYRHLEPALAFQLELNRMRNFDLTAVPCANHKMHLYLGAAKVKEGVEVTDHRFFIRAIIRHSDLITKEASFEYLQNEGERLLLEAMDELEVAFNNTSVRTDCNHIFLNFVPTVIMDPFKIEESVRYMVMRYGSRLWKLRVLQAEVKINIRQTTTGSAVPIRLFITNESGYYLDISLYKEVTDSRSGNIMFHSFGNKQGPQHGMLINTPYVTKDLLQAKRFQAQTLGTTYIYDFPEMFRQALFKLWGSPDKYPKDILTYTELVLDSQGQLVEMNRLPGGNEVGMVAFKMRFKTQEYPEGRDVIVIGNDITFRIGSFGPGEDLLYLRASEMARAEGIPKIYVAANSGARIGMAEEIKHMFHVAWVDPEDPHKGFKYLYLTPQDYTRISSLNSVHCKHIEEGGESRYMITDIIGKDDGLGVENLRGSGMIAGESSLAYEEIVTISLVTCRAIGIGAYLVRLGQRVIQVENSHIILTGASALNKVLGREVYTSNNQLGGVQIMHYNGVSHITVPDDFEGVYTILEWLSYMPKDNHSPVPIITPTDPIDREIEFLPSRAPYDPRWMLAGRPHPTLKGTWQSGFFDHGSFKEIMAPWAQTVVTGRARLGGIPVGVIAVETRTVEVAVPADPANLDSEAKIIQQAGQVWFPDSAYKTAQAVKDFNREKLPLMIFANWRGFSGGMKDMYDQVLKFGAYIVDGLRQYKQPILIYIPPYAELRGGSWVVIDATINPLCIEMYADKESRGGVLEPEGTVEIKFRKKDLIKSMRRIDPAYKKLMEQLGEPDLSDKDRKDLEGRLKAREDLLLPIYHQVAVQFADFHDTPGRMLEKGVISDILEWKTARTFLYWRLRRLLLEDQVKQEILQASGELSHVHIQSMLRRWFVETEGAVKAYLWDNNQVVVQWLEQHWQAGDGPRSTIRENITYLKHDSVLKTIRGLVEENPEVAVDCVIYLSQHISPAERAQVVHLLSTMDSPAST

Structure (SMILES)	IC50
CC(=O)N[C@@H](C)c1ccc(OC2CN(c3ccc(OCC4CC4)nc3)C2)cc1 [Example 2.1, (S)—N-(1-(4-(1-(6-(Cyclopropylmethoxy)Pyridin-3-yl)azetidin-3-yloxy)phenyl)ethyl)-acetamide]	880 nM

Same assay, conditions: hACC2 construct lacking 128 N-terminal amino acids; 25° C., 340 nm, 15 minutes

Structure (SMILES)	IC50
CC(=O)N[C@@H](C)c1ccc(OC2CN(c3ccc(OCC4CC4)cc3)C2)cn1 (stereo in doubt) [Example 14, N-(1-{5-[1-(4-Cyclopropylmethoxy-phenyl)-azetidin-3-yloxy]-pyridin-2-yl}-ethyl)-acetamide]	2040 nM
CC(=O)NC(C)c1ccc(OC2CN(c3ccc(C(C)(C)C)cc3)C2)cc1 (stereo not drawn) [Example 1.1, N-(1-(4-(1-(4-tert-Butylphenyl)azetidin-3-yloxy)phenyl)ethyl)acetamide]	180 nM
CC(=O)NC(C)c1ccc(OC2CN(c3ccc4c(c3)OCCO4)C2)cc1 (stereo not drawn) [Example 1.2]	240 nM
CC(=O)NC(C)c1ccc(OC2CN(c3ccc(OC4CC4)cc3)C2)cc1 (stereo not drawn) [Example 1.3]	530 nM
CC(=O)NC(C)c1ccc(OC2CN(c3ccc(OC4CCC4)cc3)C2)cc1 (stereo not drawn) [Example 1.4]	130 nM
CCOc1ccc(N2CC(Oc3ccc(C(C)NC(C)=O)cc3)C2)cc1 (stereo not drawn) [Example 1.5]	200 nM
CC(=O)NC(C)c1ccc(OC2CN(c3ccc(OC4CCCC4)cc3)C2)cc1 (stereo not drawn) [Example 1.6]	80 nM
CCNc1ncc(N2CC(Oc3ccc(C(C)NC(C)=O)cc3)C2)cn1 (stereo not drawn) [Example 1.7]	1250 nM
CC(=O)NC(C)c1ccc(OC2CN(c3ncc(Br)cn3)C2)cc1 (stereo not drawn) [Example 1.8]	550 nM
CCCOc1ccc(N2CC(Oc3ccc(C(C)NC(C)=O)cc3)C2)cn1 (stereo not drawn) [Example 1.9]	560 nM
CC(=O)NC(C)c1ccc(OC2CN(c3cnc(OC4CCC4)nc3)C2)cc1 (stereo not drawn) [Example 1.10]	670 nM
CC(=O)NC(C)Cc1ccc(OC2CN(c3ccc(C(C)(C)C)cc3)C2)cc1 (stereo not drawn) [Example 1.11]	2210 nM
CCOc1ccc(N2CC(Oc3ccc(CC(C)NC(C)=O)cc3)C2)cc1 (stereo not drawn) [Example 1.12]	5340 nM
CCCOc1ccc(N2CC(Oc3ccc([C@H](C)NC(C)=O)cc3)C2)cc1 [Example 1.13]	70 nM
CC(=O)N[C@@H](C)c1ccc(OC2CN(c3ccc(OCC4CC4)cc3)C2)cc1 [Example 1.14]	70 nM
CC(=O)N[C@@H](C)c1ccc(OC2CN(c3cnc(NC4CCC4)nc3)C2)cc1 [Example 1.15]	180 nM
CC(=O)N[C@@H](C)c1ccc(OC2CN(c3ccc4c(c3)OCCCO4)C2)cc1 [Example 1.16]	450 nM
CCOc1ccc(N2CC(Oc3ccc([C@H](C)NC(C)=O)cc3)C2)c(OC)c1 [Example 1.17]	1890 nM
CC(=O)N[C@@H](C)c1ccc(OC2CN(c3ccc4c(c3)OCC(C)(C)CO4)C2)cc1 [Example 1.18]	140 nM
CCOc1ccc(N2CC(Oc3ccc([C@H](C)NC(C)=O)cc3)C2)cc1 [Example 1.19]	90 nM
COc1cc(OC2CCC2)ccc1N1CC(Oc2ccc([C@H](C)NC(C)=O)cc2)C1 [Example 1.20]	490 nM
CCCOc1ccc(N2CC(Oc3ccc([C@H](C)NC(C)=O)cc3)C2)c(OC)c1 [Example 1.21]	190 nM

Structure (SMILES)	IC50
COc1ccc(N2CC(Oc3ccc([C@H](C)NC(C)=O)cc3)C2)c(C#N)c1 [Example 1.22]	1180 nM
CC(=O)N[C@@H](C)c1ccc(OC2CN(c3ccc(C(F)(F)F)cc3C#N)C2)cc1 [Example 1.23]	2810 nM
CC(=O)N[C@@H](C)c1ccc(OC2CN(c3ccc4c(c3)OCCO4)C2)cc1 [Example 1.24]	120 nM
CCCOc1ccc(N2CC(Oc3ccc([C@H](C)NC(C)=O)cc3)C2)c(C#N)c1 [Example 1.25]	580 nM
CC(=O)N[C@@H](C)c1ccc(OC2CN(c3ccc4c(c3)OC(F)(F)O4)C2)cc1 [Example 1.26]	740 nM
CC(=O)N[C@@H](C)c1ccc(OC2CN(c3ccc4oc(C)nc4c3)C2)cc1 [Example 1.27]	1750 nM
CC(=O)N[C@@H](C)c1ccc(OC2CN(c3ccc4oc(-c5ccccc5)nc4c3)C2)cc1 [Example 1.28]	1620 nM
CC(=O)N[C@@H](C)c1ccc(OC2CN(c3ccc4c(c3)OCCCC4(C)C)C2)cc1 [Example 1.29]	190 nM
CCOc1cccc(N2CC(Oc3ccc([C@H](C)NC(C)=O)cc3)C2)c1 [Example 1.30]	670 nM
CCCOc1ccc(N2CC(Oc3ccc([C@H](C)NC(=O)N(C)C)cc3)C2)cc1 [Example 1.31]	190 nM
C[C@H](NC(=O)N(C)C)c1ccc(OC2CN(c3ccc(OC4CC4)cc3)C2)cc1 [Example 1.32]	190 nM
C[C@H](NC(=O)N(C)C)c1ccc(OC2CN(c3ccc(OCC4CC4)cc3)C2)cc1 [Example 1.33]	200 nM
C[C@H](NC(=O)N(C)C)c1ccc(OC2CN(c3ccc4c(c3)OCCO4)C2)cc1 [Example 1.34]	340 nM
CCCOc1ccc(N2CC(Oc3ccc([C@H](C)NC(=O)C4CC4)cc3)C2)cc1 [Example 1.35]	60 nM
COc1cc(OCC2CC2)ccc1N1CC(Oc2ccc([C@H](C)NC(C)=O)cc2)C1 [Example 1.36]	2830 nM
COc1cc(OC(C)C)ccc1N1CC(Oc2ccc([C@H](C)NC(C)=O)cc2)C1 [Example 1.37]	2270 nM
CCC(C)Oc1ccc(N2CC(Oc3ccc([C@H](C)NC(C)=O)cc3)C2)c(OC)c1 (stereo partly drawn) [Example 1.38]	2310 nM
C[C@H](NC(=O)C1CC1)c1ccc(OC2CN(c3ccc(OC4CC4)cc3)C2)cc1 [Example 1.39]	350 nM
C[C@H](NC(=O)C1CC1)c1ccc(OC2CN(c3ccc(OCC4CC4)cc3)C2)cc1 [Example 1.40]	1030 nM
C[C@H](NC(=O)C1CC1)c1ccc(OC2CN(c3ccc4c(c3)OCCO4)C2)cc1 [Example 1.41]	1230 nM
CCCOc1cccc(N2CC(Oc3ccc([C@H](C)NC(=O)N(C)C)cc3)C2)c1 [Example 1.42]	1050 nM
COc1cc(OC2CC2)ccc1N1CC(Oc2ccc([C@H](C)NC(C)=O)cc2)C1 [Example 1.43]	1290 nM

Structure (SMILES)	IC50
CC(=O)N[C@@H](C)c1ccc(OC2CN(c3ccc(OC4CC4)cc3C)C2)cc1 [Example 1.44]	250 nM
CC(=O)N[C@@H](C)c1ccc(OC2CN(c3c(F)cc(OC4CC4)cc3F)C2)cc1 [Example 1.45]	130 nM
CC(=O)N[C@@H](C)c1ccc(OC2CN(c3ccc(OC4CCC4)cc3C#N)C2)cc1 [Example 1.46]	170 nM
CC(=O)N[C@@H](C)c1ccc(OC2CN(c3ccc(OCC4CC4)cc3C#N)C2)cc1 [Example 1.47]	400 nM
CCCOc1cccc(N2CC(Oc3ccc([C@H](C)NC(C)=O)cc3)C2)c1 [Example 1.48]	1020 nM
CC(=O)N[C@@H](C)c1ccc(OC2CN(c3cccc(OCC(C)C)c3)C2)cc1 [Example 1.49]	1130 nM
CCOc1ccc(N2CC(Oc3ccc([C@H](C)NC(C)=O)cc3)C2)nc1 [Example 1.51]	270 nM
CCCOc1ccc(N2CC(Oc3ccc([C@H](C)NC(C)=O)cc3)C2)nc1 [Example 1.52]	90 nM
CC(=O)N[C@@H](C)c1ccc(OC2CN(c3cc4c(cc3F)OCCCO4)C2)cc1 [Example 1.53]	760 nM
CC(=O)N[C@@H](C)c1ccc(OC2CN(c3ccc(OCC4CC4(F)F)cc3F)C2)cc1 (stereo partly drawn) [Example 1.54]	40 nM
CC(=O)N[C@@H](C)c1ccc(OC2CN(c3ccc(OC4CC4)cc3F)C2)cc1 [Example 1.55]	110 nM
CC(=O)N[C@@H](C)c1ccc(OC2CN(c3cccc(C(F)(F)F)c3)C2)cc1 [Example 1.56]	150 nM
CC(=O)N[C@@H](C)c1ccc(OC2CN(c3cc4c(cc3F)OCCO4)C2)cc1 [Example 1.57]	740 nM
CCOc1ccc(N2CC(Oc3ccc([C@H](C)NC(C)=O)cc3)C2)c(C#N)n1 [Example 1.58]	1390 nM
CCCOc1ccc(N2CC(Oc3ccc([C@H](C)NC(C)=O)cc3)C2)c(C#N)n1 [Example 1.59]	300 nM
CC(=O)N[C@@H](C)c1ccc(OC2CN(c3ccc(OCC4CC4)nc3C#N)C2)cc1 [Example 1.60]	650 nM
COc1cc(OCC2CC2(F)F)ccc1N1CC(Oc2ccc([C@H](C)NC(C)=O)cc2)C1 (stereo partly drawn) [Example 1.61]	2540 nM
CCOc1cc(N2CC(Oc3ccc([C@H](C)NC(C)=O)cc3)C2)c(F)cn1 [Example 1.62]	2910 nM
CC(=O)N[C@@H](C)c1ccc(OC2CN(c3ccc(OCC4CC4)cc3F)C2)cc1 [Example 2.2]	60 nM
CCOc1ccc(N2CC(Oc3ccc([C@H](C)NC(C)=O)cc3)C2)c(F)c1 [Example 2.3]	240 nM
CC(=O)N[C@@H](C)c1ccc(OC2CN(c3ccc(OC4CC4)cc3OC3CC3)C2)cc1 [Example 2.4]	6140 nM
